Measured values taken from patent US4960790A, “Derivatives of taxol, pharmaceutical compositions thereof and methods for the preparation thereof” (University of Kansas, priority 1989, dated 1990).
Where a name gives a salt, the structure may show the parent alone. Read-outs that look alike come from different tables or passages of the source.

Legend:
[1] = Plasma stability, human plasma; format: in vitro ADME; conditions: human plasma (20 μg/mL), 37° C.
Method: Stabilities of derivatives at various pHs were studied at 25° and 37°. The plasma studies were conducted at 37° in rat and human plasma. Human plasma was obtained from Watkins Hospital and rat plasma was obtained from the Animal Care Unit of the University of Kansas. […] One hundred microliter samples were removed and was quenched with 250 uL. acetonitrile and centrifuged to precipitate the plasma proteins. The degradation kinetics were studied by HPLC plotting peak area vs. time. The t90 and t50 were calculated. Both chemical and plasma studies were followed by high performance liquid chromatography using a RP-8 column (15 cm) and a precolumn (5 cm). The detector was set at 227 nm. The mobile phase consisted of 0.02M acetate (pH 5): acetonitrile 50:50 or 35:65 and the flow rate ranged from 1-1.5 mL/min or the same solvents containing 0.001M tetrabutylammoniumydrogensulphate and a flow rate of 1 mL/min.

[2] = Solubility; format: physicochemical; conditions: read-out: Solubility
[3] = Plasma stability, dog plasma; format: in vitro ADME; conditions: dog plasma (20 μg/mL), 37° C.
[4] = Plasma stability, rat plasma; format: in vitro ADME; conditions: rat plasma (20 μg/mL), 37° C.
Method: (§1) Stabilities of derivatives at various pHs were studied at 25° and 37°. The plasma studies were conducted at 37° in rat and human plasma. Human plasma was obtained from Watkins Hospital and rat plasma was obtained from the Animal Care Unit of the University of Kansas. The derivative concentration used was around 20-25 μg/ml. A stock solution of the compound was prepared at 0.8-1.0 mg/mL and was added to plasma to give the desired concentration (20-25 μg/mL). One hundred microliter samples were removed and was quenched with 250 uL. acetonitrile and centrifuged to precipitate the plasma proteins. The degradation kinetics were studied by HPLC plotting peak area vs. time. The t90 and t50 were calculated. Both chemical and plasma studies were followed by high performance liquid chromatography using a RP-8 column (15 cm) and a precolumn (5 cm). The detector was set at 227 nm. The mobile phase consisted of 0.02M acetate (pH 5): acetonitrile 50:50 or 35:65 and the flow rate ranged from 1-1.5 mL/min or the same solvents containing 0.001M tetrabutylammoniumydrogensulphate and a flow rate of 1 mL/min.

[5] = Chemical stability in buffer or water; format: physicochemical
Method: The compound was subjected to stability studies according to the following procedures.
as §1
The identity of this peak was further confirmed by the degradation studies of the new derivatives. Thus, 2'(DMG) taxol was incubated with water at 37° and the product was concentrated and purified by preparative TLC. The product after purification was analyzed by HPLC and spectroscopic methods.

[6] = tested on: human mammary carcinoma MX-1 xenograft; experiment: Subrenal capsule human mammary carcinoma MX-1 xenograft in mice; conditions: for ANML BODY WT DIFF (test minus control) / TEST BODY WT CHG / # OF ANMLS ALIVE CALC/TOTAL / Average tumor WEIGHT CHANGE (DELTA) / Average tumor weight, FINAL: Q4D; for ANML BODY WT DIFF (test minus control) / TEST BODY WT CHG: Day 1 to 11; for # OF ANMLS ALIVE CALC/TOTAL / Average tumor WEIGHT CHANGE (DELTA) / Average tumor weight, FINAL / % T/C: Day 11; for % T/C: Q4D Days 1, 5, 9
Description: The procedures followed are those described at pages 23-24 of NIH Publication No. 84-2635, In Vivo Cancer Model (February 1984).
In the procedure, test groups of mice (6 mice per test group) and control groups of 12 mice per group are utilized. A tumor fragment (human mammary carcinoma MX-1 xenograft), is implanted under the membranous covering of the kidney of each mouse.
Day 0: Anesthetize animals. Record body weight (Weigh Day 1). Implant tumor, measure and record. Randomize animals after they recover from the anesthetic. Run bacterial cultures. Determine solubilities of test agent. Record deaths daily.
Day 1: Check cultures. Discard experiment if contaminated. Prepare test materials. Initiate test agent injections (in the nape of the neck) based on individual body weight. Treatment is Q4D on Days 1, 5, and 9. Prepare test agent fresh on each injection day and administer based on individual body weight for that day.
Days 5 and 9: Prepare test agent fresh on each injection day and administer based on individual body weight for that day.
Day 11: End and evaluate experiment. Record body weights (Weigh Day 2). Measure tumor in OMU's (Ocular Micrometer Unit--10 OMU's=1 mm) and record.
The parameter measured is mean tumor weight change (delta) based on length and width measurements in millimeters. Mean animal body weights are computed for Day 1 and Day 11, compute T/C for all test groups with>65% survivors on Day 11. An excessive body weight change difference (test minus control) may also be used in evaluating toxicity. The dimensions are measured and recorded in Ocular Micrometer Units (OMU). A computer is utilized for the following:
(1) Converts OMU's to millimeters (mm).
(2) Calculates tumor weights (mgs) from tumor dimensions (mm×mm) following the formula for the volume of a prolate ellipsoid: [formula] (3) Calculates the change (delta) in mean tumor weight for each group of mice:
Change in Mean Tumor Weight=Mean Tumor WeightFINAL -Mean Tumor WeightINITIAL.
(4) Calculates the change (delta) in mean tumor weight for test (T) and control (C) groups.
(5) Calculates T/C% for all test groups with>65% survivors on Final Evaluation Day: [formula]

[7] = tested on: microtubules; conditions: in vitro / cells, in words; cited from earlier work
[8] = tested on: tumors; conditions: in words; cited from earlier work
[9] = tested on: microtubule assembly; experiment: In vitro microtubule assembly kinetics; format: biochemical; conditions: rank order
Method: (A) In vitro Microtubule Assembly Kinetics Studies
The microtubule assembly study was conducted using both 2' and 7-derivatives according to the in vitro procedures disclosed, for example, in Mellado et al., Biochemical and Biophysical Research Communications, Vol. 124, No. 2 (1984), pp. 329-336; Magri et al., J. Org. Chem., 51, 797-802 (1986); and Parness et al., Biochemical and Biophysical Research Communications, Vol. 105, No. 3, pp. 1082-1091 (1982).

[10] = in words; cited from earlier work
[11] = tested on: B-16 melanoma cells; experiment: In vitro B16 melanoma cell proliferation; format: cell-based; conditions: rank order
Method: These studies were conducted according to standard procedures as described in Donoso and Himes, Cancer Biochem. Biophysics, vol. 7, (1984), p. 133.

SMILES: CC(=O)O[C@H]1C(=O)[C@@]2(C)[C@H]([C@H](OC(=O)c3ccccc3)[C@]3(O)C[C@H](OC(=O)[C@H](OC(=O)CN(C)C)[C@@H](NC(=O)c4ccccc4)c4ccccc4)C(C)=C1C3(C)C)[C@]1(OC(C)=O)CO[C@@H]1C[C@@H]2O [Compound 2, Methanesulphonic acid salt of 2'-(N,N-dimethylglycyl)taxol]
- half-life [1]: 3.31 h
- solubility ([2]; Clear): 2000 µg/mL
- solubility ([2]; Slightly Hazy): 15000 µg/mL
- half-life [3]: 2.03 h
- half-life [4]: 3.05 min
- half-life ([5]; 0.02 M Acetate (0.1 mg/mL), pH 3.5, 25° C.): 96.2 h
- half-life ([5]; 0.02 M Acetate (0.1 mg/mL), pH 4.5, 25° C.): 55.4 h
- half-life ([5]; water (2 mg/mL), pH 3.8, 37° C.): 89.8 h

SMILES: CC(=O)O[C@H]1C(=O)[C@@]2(C)[C@H]([C@H](OC(=O)c3ccccc3)[C@]3(O)C[C@H](OC(=O)[C@H](O)[C@@H](NC(=O)c4ccccc4)c4ccccc4)C(C)=C1C3(C)C)[C@]1(OC(C)=O)CO[C@@H]1C[C@@H]2O [Taxol]
- ANML BODY WT DIFF (test minus control) ([6]; Table 1, 4.45 mg/kg): .5
- TEST BODY WT CHG ([6]; Table 1, 4.45 mg/kg): -1.2
- # OF ANMLS ALIVE CALC/TOTAL ([6]; Table 1, 4.45 mg/kg): 5/5
- Average tumor WEIGHT CHANGE (DELTA) ([6]; Table 1, 4.45 mg/kg): -.79 MGS
- Average tumor weight, FINAL ([6]; Table 1, 4.45 mg/kg): .00 MGS
- ANML BODY WT DIFF (test minus control) ([6]; Table 1, 6.67 mg/kg): .2
- TEST BODY WT CHG ([6]; Table 1, 6.67 mg/kg): -1.5
- # OF ANMLS ALIVE CALC/TOTAL ([6]; Table 1, 6.67 mg/kg): 5/5
- Average tumor WEIGHT CHANGE (DELTA) ([6]; Table 1, 6.67 mg/kg): -.74 MGS
- Average tumor weight, FINAL ([6]; Table 1, 6.67 mg/kg): .00 MGS
- % T/C ([6]; Table 1, 10.00 mg/kg): -84%
- ANML BODY WT DIFF (test minus control) ([6]; Table 1, 10.00 mg/kg): -.3
- TEST BODY WT CHG ([6]; Table 1, 10.00 mg/kg): -2.0
- # OF ANMLS ALIVE CALC/TOTAL ([6]; Table 1, 10.00 mg/kg): 6/6
- Average tumor WEIGHT CHANGE (DELTA) ([6]; Table 1, 10.00 mg/kg): -.49 MGS
- Average tumor weight, FINAL ([6]; Table 1, 10.00 mg/kg): .09 MGS
- ANML BODY WT DIFF (test minus control) ([6]; Table 1, 15.00 mg/kg): -2.5
- TEST BODY WT CHG ([6]; Table 1, 15.00 mg/kg): -4.2
- # OF ANMLS ALIVE CALC/TOTAL ([6]; Table 1, 15.00 mg/kg): 6/6
- Average tumor WEIGHT CHANGE (DELTA) ([6]; Table 1, 15.00 mg/kg): -.81 MGS
- Average tumor weight, FINAL ([6]; Table 1, 15.00 mg/kg): .00 MGS
- % T/C ([6]; Table 1, 22.40 mg/kg): TOX
- ANML BODY WT DIFF (test minus control) ([6]; Table 1, 22.40 mg/kg): -.9
- TEST BODY WT CHG ([6]; Table 1, 22.40 mg/kg): -2.6
- # OF ANMLS ALIVE CALC/TOTAL ([6]; Table 1, 22.40 mg/kg): 3/6
- Average tumor weight, FINAL ([6]; Table 1, 22.40 mg/kg): .00 MGS
- % T/C ([6]; Table 2, 1.88 mg/kg): 5%
- ANML BODY WT DIFF (test minus control) ([6]; Table 2, 1.88 mg/kg): 3.0
- TEST BODY WT CHG ([6]; Table 2, 1.88 mg/kg): -1.0
- # OF ANMLS ALIVE CALC/TOTAL ([6]; Table 2, 1.88 mg/kg): 4/5
- Average tumor WEIGHT CHANGE (DELTA) ([6]; Table 2, 1.88 mg/kg): .71 MGS
- Average tumor weight, FINAL ([6]; Table 2, 1.88 mg/kg): 1.51 MGS
- ANML BODY WT DIFF (test minus control) ([6]; Table 2, 3.75 mg/kg): 1.1
- TEST BODY WT CHG ([6]; Table 2, 3.75 mg/kg): -2.9
- # OF ANMLS ALIVE CALC/TOTAL ([6]; Table 2, 3.75 mg/kg): 4/5
- Average tumor WEIGHT CHANGE (DELTA) ([6]; Table 2, 3.75 mg/kg): -.71 MGS
- Average tumor weight, FINAL ([6]; Table 2, 3.75 mg/kg): .00 MGS
- % T/C ([6]; Table 2, 7.50 mg/kg): TOX
- ANML BODY WT DIFF (test minus control) ([6]; Table 2, 7.50 mg/kg): 2.3
- TEST BODY WT CHG ([6]; Table 2, 7.50 mg/kg): -1.7
- # OF ANMLS ALIVE CALC/TOTAL ([6]; Table 2, 7.50 mg/kg): 3/5
- Average tumor weight, FINAL ([6]; Table 2, 7.50 mg/kg): .00 MGS
- % T/C ([6]; Table 2, 15.00 mg/kg): TOX
- # OF ANMLS ALIVE CALC/TOTAL ([6]; Table 2, 15.00 mg/kg): 0/5
- Effect on microtubules [7]: promotes the assembly of microtubules but inhibits their disassembly
- Antitumor activity [8]: potent antitumor activity against a wide variety of tumors
- Ability to assemble microtubules (order) [9]: taxol >7-(N,N-dimethylglycyl)taxol(11)>2'(N,N-diethylaminopropionyl)taxol(8)>2'(N,N-dimethylglycyl)taxol(2)
- Water solubility [10]: only very slightly soluble in water
- Order of effectiveness in B-16 melanoma cell proliferation study [11]: taxol>2'-(N,N-dimethylglycyl)taxol>2'-(N,N-diethylaminopropionyl)taxol>7-(N,N-dimethylglycyl)taxol
